This is an account of results in patent US6911207B1, “Cytotoxic T-cell epitopes of the papillomavirus L1-protein and use thereof in diagnostics and therapy” (MediGene Aktiengesellschaft, priority 1999, dated 2005).

One assay relates to RMA-S cells. The class given is cell-based, mouse.
The subject of assay [1] is MVA-L1Δc-infected B6 cells. Type of assay: cell-based, mouse.

Turning to “ASNENMETM (Influenza Virus Type A) [AM control peptide]”, the “specific lysis of peptide-preincubated RMA-S target cells by spleen cells of L1-immunized mouse 1” value with RMA-S cells is on record as “did not cause any distinct lysis”. In the case of “L1 VLPs: HPV16 L1 virus-like particles (Muller M. et al. 1997)”, in assay [1], the “specific lysis of MVA-F6-infected (control virus) B6 target cells by spleen cells of the immunized mouse” value is recorded as “not the MVA-F6-infected target cells” and the “specific lysis of MVA-L1Δc-infected B6 target cells by spleen cells of the immunized mouse” value was “lysed the MVA-L1Δc-infected target cells”.
